Measured values as given in PubChem BioAssay AID256 (DTP/NCI, 2004).
Where “and” joins values, the source holds several entries; their conditions need not be identical. Equal entries are not always repeated. Toxic doses and inconclusive results are not listed.

Test system: CD2F1 mice, L1210 leukemia ip, survival T/C
Experiment: NCI In Vivo Anticancer Drug Screen. Data for tumor model L1210 Leukemia (intraperitoneal) in CD2F1 (CDF1) mice
Details: higher = longer survival
In short: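 Implant tumor; dose compound or vehicle; measure endpoint in both groups; report treated divided by control.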

[1] = endpoint: mean survival time, dose: 100.0 mg/kg/injection, schedule: Q01DX001 (ip), vehicle: saline with Tween-80
[2] = endpoint: mean survival time, dose: 200.0 mg/kg/injection, schedule: Q01DX001 (ip), vehicle: saline with Tween-80
[3] = endpoint: mean survival time, dose: 400.0 mg/kg/injection, schedule: Q01DX001 (ip), vehicle: saline with Tween-80
[4] = endpoint: mean survival time, dose: 100.0 mg/kg/injection, schedule: Q04DX003 (ip), vehicle: saline with Tween-80
[5] = endpoint: mean survival time, dose: 200.0 mg/kg/injection, schedule: Q04DX003 (ip), vehicle: saline with Tween-80
[6] = endpoint: mean survival time, dose: 400.0 mg/kg/injection, schedule: Q04DX003 (ip), vehicle: saline with Tween-80
[7] = endpoint: mean survival time, dose: 100.0 mg/kg/injection, schedule: Q01DX001 (ip), vehicle: saline
[8] = endpoint: mean survival time, dose: 200.0 mg/kg/injection, schedule: Q01DX001 (ip), vehicle: saline
[9] = endpoint: mean survival time, dose: 400.0 mg/kg/injection, schedule: Q01DX001 (ip), vehicle: saline

O=c1[nH]c(=O)n(C2OC(CO)C(O)C2O)cc1Br (configuration not stated)
T/C (endpoint: mean survival time, dose: 100.0 mg/kg/injection, schedule: Q04DX002 (ip), vehicle: saline with Tween-80): 109 % of control
T/C (endpoint: mean survival time, dose: 200.0 mg/kg/injection, schedule: Q04DX002 (ip), vehicle: saline with Tween-80): 101 % of control
T/C (endpoint: mean survival time, dose: 400.0 mg/kg/injection, schedule: Q04DX002 (ip), vehicle: saline with Tween-80): 101 % of control

O=C1c2cccc([N+](=O)[O-])c2C(=O)c2c1cccc2[N+](=O)[O-]
T/C [1]: 103 % of control
T/C [2]: 102 % of control
T/C [3]: 96 % of control

O=C(/C=C/c1ccccc1)SCc1ccccc1
T/C [4]: 96 % of control
T/C [5]: 98 % of control
T/C [6]: 94 % of control

C=CCSc1cccc2ccccc12
T/C (endpoint: mean survival time, dose: 100.0 mg/kg/injection, schedule: Q01DX009 (ip), vehicle: saline with Tween-80): 90 % of control
T/C [4]: 104 % of control
T/C (endpoint: mean survival time, dose: 200.0 mg/kg/injection, schedule: Q01DX009 (ip), vehicle: saline with Tween-80): 96 % of control
T/C [5]: 104 % of control
T/C [6]: 106 % of control

NC(N)=NCCN=C(N)N
T/C [7]: 105 % of control
T/C [8]: 94 % of control
T/C [9]: 100 % of control

O=C(O)CN(CC(=O)O)CC(O)CN(CC(=O)O)CC(=O)O
T/C [7]: 98 % of control
T/C [8]: 105 % of control
T/C [9]: 93 % of control

Cc1cc(=O)[nH]c2cc(Br)ccc12
T/C [1]: 91 % of control
T/C [2]: 89 % of control
T/C [3]: 87 % of control

O=S(=O)(O)CN(CCN(CS(=O)(=O)O)CS(=O)(=O)O)CS(=O)(=O)O
T/C (endpoint: mean survival time, dose: 100.0 mg/kg/injection, schedule: Q01DX009 (ip), vehicle: saline sonified): 96 % of control
T/C (endpoint: mean survival time, dose: 100.0 mg/kg/injection, schedule: Q04DX003 (ip), vehicle: saline): 109 % of control
T/C (endpoint: mean survival time, dose: 200.0 mg/kg/injection, schedule: Q01DX009 (ip), vehicle: saline sonified): 92 % of control
T/C (endpoint: mean survival time, dose: 200.0 mg/kg/injection, schedule: Q04DX003 (ip), vehicle: saline): 97 % of control
T/C (endpoint: mean survival time, dose: 400.0 mg/kg/injection, schedule: Q01DX009 (ip), vehicle: saline sonified): 91 % of control
T/C (endpoint: mean survival time, dose: 400.0 mg/kg/injection, schedule: Q04DX003 (ip), vehicle: saline): 97 % of control

O=C(C(c1ccccc1)C(F)(F)F)N1CCCC1 (configuration not stated)
T/C [4]: 97 % of control
T/C [5]: 100 % of control
T/C [6]: 97 % of control

O=[N+]([O-])c1ccc(F)cc1
T/C (endpoint: mean survival time, dose: 10.0 mg/kg/injection, schedule: Q04DX003 (ip), vehicle: saline): 104 % of control
T/C (endpoint: mean survival time, dose: 20.0 mg/kg/injection, schedule: Q04DX003 (ip), vehicle: saline): 102 % of control
T/C (endpoint: mean survival time, dose: 40.0 mg/kg/injection, schedule: Q04DX003 (ip), vehicle: saline): 102 % of control

CCOC(=O)C(C#N)C1CNP(=O)(N(CCCl)CCCl)OC1 (configuration not stated)
T/C (endpoint: mean survival time, dose: 31.25 mg/kg/injection, schedule: Q01DX001 (ip), vehicle: DMSO): 98 % of control
T/C (endpoint: mean survival time, dose: 62.5 mg/kg/injection, schedule: Q01DX001 (ip), vehicle: DMSO): 98 % of control
T/C (endpoint: mean survival time, dose: 125.0 mg/kg/injection, schedule: Q01DX001 (ip), vehicle: DMSO): 100 % of control
T/C (endpoint: mean survival time, dose: 250.0 mg/kg/injection, schedule: Q01DX001 (ip), vehicle: DMSO): 100 % of control
T/C (endpoint: mean survival time, dose: 500.0 mg/kg/injection, schedule: Q01DX001 (ip), vehicle: DMSO): 112 % of control
T/C (endpoint: mean survival time, dose: 1000.0 mg/kg/injection, schedule: Q01DX001 (ip), vehicle: DMSO): 115 % of control

CC(C)(C)C1CCS(=O)(=O)CC1.[Cl][Hg][Cl]
T/C (endpoint: mean survival time, dose: 0.25 mg/kg/injection, schedule: Q04DX003 (ip), vehicle: saline): 104 % of control
T/C (endpoint: mean survival time, dose: 0.5 mg/kg/injection, schedule: Q04DX003 (ip), vehicle: saline): 94 % of control
T/C (endpoint: mean survival time, dose: 1.0 mg/kg/injection, schedule: Q04DX003 (ip), vehicle: saline): 100 % of control

O=C1c2c(O)cccc2-c2nn(CCNCCO)c3ccc(NCCNCCO)c1c23
T/C (endpoint: median survival time, dose: 1.38 mg/kg/injection, schedule: Q01DX009 (ip), vehicle: water): 170 % of control
T/C (endpoint: median survival time, dose: 2.75 mg/kg/injection, schedule: Q01DX009 (ip), vehicle: water): 240 % of control and 370 % of control
T/C (endpoint: median survival time, dose: 5.5 mg/kg/injection, schedule: Q01DX009 (ip), vehicle: water): 222 % of control and 361 % of control
T/C (endpoint: median survival time, dose: 11.0 mg/kg/injection, schedule: Q01DX009 (ip), vehicle: water): 101 % of control and 107 % of control
T/C (endpoint: median survival time, dose: 22.0 mg/kg/injection, schedule: Q01DX009 (ip), vehicle: water): 87 % of control

O=C1NC(=O)C(=C/C=C/c2ccccc2)C(=O)N1
T/C (endpoint: mean survival time, dose: 12.5 mg/kg/injection, schedule: Q01DX009 (ip), vehicle: saline with Tween-80): 97 % of control
T/C (endpoint: mean survival time, dose: 25.0 mg/kg/injection, schedule: Q01DX009 (ip), vehicle: saline with Tween-80): 94 % of control
T/C (endpoint: mean survival time, dose: 50.0 mg/kg/injection, schedule: Q01DX009 (ip), vehicle: saline with Tween-80): 91 % of control and 103 % of control
